The source of these data is US12121504B1, “Method for producing 1,3-diolein from biomass” (KING SAUD UNIVERSITY, priority 2024, dated 2024).

The assay has as its system C. auris strain. Format: cell-based, Candida auris. As to conditions: C. auris strain used in the anti-fungal test. The procedure:
The biological activity of compound 1 (linoleic acid) as an antifungal agent against fluconazole- and caspofungin-resistant C. auris was evaluated using disk diffusion assay for determining the inhibition zone (mm) and two-fold serial microdilution assay for determining the minimal inhibitory concentration (MIC) (mg/mL) according to Dilika et al., (2000) and Zheng et al., (2005). The hexadecanoic acid and isopropyl myristate were prepared (both compounds (data not shown) were used in this stage as a negative control).

As to `CC[C@H](C)C[C@H](C)CCCCCCCCC(=O)N[C@H]1C[C@@H](O)[C@@H](NCCN)NC(=O)[C@@H]2[C@@H](O)CCN2C(=O)[C@H]([C@H](O)CCN)NC(=O)[C@H]([C@H](O)[C@@H](O)c2ccc(O)cc2)NC(=O)[C@@H]2C[C@@H](O)CN2C(=O)[C@H]([C@@H](C)O)NC1=O` [caspofungin], the “susceptibility of C. auris strain to standard anti-fungal drug” value was “resistant”.
As to `OC(Cn1cncn1)(Cn1cncn1)c1ccc(F)cc1F` [fluconazole], the “susceptibility of C. auris strain to standard anti-fungal drug” value is reported as “resistant”.
